Laboratory results reported in patent US8445504B2, “Tricyclic pyrazolopyrimidine derivatives” (Daiichi Sankyo Company, Limited, priority 2009, dated 2013).

How the values were obtained:
[1] = test system: human lung cancer cell line NCI-H460; test: Cell growth inhibition assay (MTT), NCI-H460; assay type: cell-based; conditions: NCI-H460, 72 hours
Procedure: (§1) A cell growth inhibition assay was performed using two types of cells (human breast cancer cell line SK-BR-3 and human lung cancer cell line NCI-H460).
(§2) Cells of each type were suspended in a medium and seeded into a 96-well multi-well plate at 2000 cells/150 μL/well in the case of SK-BR-3 and at 500 cells/150 μL/well in the case of NCI-H460. The test compound was dissolved in DMSO, and this was diluted with medium to prepare a sample solution (DMSO concentration: 0.5% or less). On the day following the seeding, 50 μL of DMSO-containing medium to which the test compound was not added (hereinafter called DMSO diluted solution; DMSO concentration: 0.5% or less) or 50 μL of the sample solution was further added to the cells. An MTT assay was performed immediately after and 72 hours after adding the sample solution or the DMSO diluted solution to the cells. The MTT assay was performed as follows.
(§3) 5 mg/mL of an MTT (3-(4,5-dimethylthiazol-2-yl)-2,5-diphenyltetrazolium bromide) solution was added at 20 μL per well. Thereafter, the plate was incubated at 37° C. in 5% CO2 for four hours. The plate was centrifuged at 1200 rpm for five minutes, and then the culture supernatant was removed by suction using a dispenser. DMSO was added at 150 μL per well, and the generated formazan was dissolved. The plate was stirred using a plate mixer to uniformly color the respective wells. The absorbance of each well was measured using a plate reader at an OD of 540 nm with a reference of 660 nm.
(§4) T/C (%) for each concentration was determined by the following calculation formula and a dose-response curve was drawn to calculate the 50% growth inhibitory concentration (GI50 value), based on the assumption that the OD value measured immediately after adding the sample solution was S, the OD value measured 72 hours after adding the sample solution was T, and the OD value measured 72 hours after adding the DMSO diluted solution was C. T/C (%)=(T−S)/(C−S)×100 The results are shown below.

[2] = molecular target: T1, recombinant yeast Hsp90 protein (rHsp90) (Saccharomyces cerevisiae, UniProt P02829); test: Hsp90 ATPase assay; assay type: biochemical; conditions: at a concentration of 2 μM; 100 μM ATP, 37° C., two hours; read-out: ATPase inhibitory activity
T1 construct: made in house; host or cells: Escherichia coli
T1 sequence (P02829 whole entry): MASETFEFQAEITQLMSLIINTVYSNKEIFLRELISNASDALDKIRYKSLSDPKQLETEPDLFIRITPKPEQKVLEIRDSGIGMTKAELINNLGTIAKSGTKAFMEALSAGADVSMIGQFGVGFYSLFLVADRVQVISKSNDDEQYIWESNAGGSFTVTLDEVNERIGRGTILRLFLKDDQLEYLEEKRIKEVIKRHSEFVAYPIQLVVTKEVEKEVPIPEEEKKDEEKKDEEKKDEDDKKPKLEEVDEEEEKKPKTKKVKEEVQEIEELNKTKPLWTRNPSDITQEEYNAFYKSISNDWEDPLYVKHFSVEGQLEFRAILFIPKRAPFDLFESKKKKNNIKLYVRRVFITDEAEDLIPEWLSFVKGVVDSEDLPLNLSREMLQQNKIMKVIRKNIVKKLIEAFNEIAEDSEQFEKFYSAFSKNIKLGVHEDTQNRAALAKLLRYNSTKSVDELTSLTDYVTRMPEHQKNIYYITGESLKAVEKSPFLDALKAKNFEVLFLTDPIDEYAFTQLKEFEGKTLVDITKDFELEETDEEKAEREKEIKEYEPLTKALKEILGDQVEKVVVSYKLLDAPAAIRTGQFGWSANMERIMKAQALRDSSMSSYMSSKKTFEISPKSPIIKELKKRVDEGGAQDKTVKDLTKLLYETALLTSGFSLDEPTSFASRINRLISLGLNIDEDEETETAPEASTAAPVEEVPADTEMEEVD
Procedure: An Hsp90 ATPase assay was performed using a recombinant yeast Hsp90 protein (hereinafter called rHsp90). Yeast Hsp90 DNA was cloned from a yeast genomic DNA library according to a conventional method. The cloned yeast Hsp90 DNA was incorporated into a plasmid for expression in Escherichia coli, and the plasmid was expressed in Escherichia coli to obtain rHsp90.
The test compound was dissolved in DMSO to 10 mM. The dissolved solution was diluted with DMSO to two concentrations, 1 mM and 0.2 mM. Each diluted solution was further 10-fold diluted with an assay buffer (100 mM Tris, pH 7.4, 20 mM KCl, 6 mM MgCl2) (concentration of each test compound solution: 100 μM and 20 μM; DMSO concentration: 10%).
rHsp90 was dissolved in a TE buffer (20 mM Tris, pH 7.4, 1 mM EDTA) to a concentration of 2.531 mg/mL. The solution was diluted with an assay buffer to 125 μg/mL and dispensed to a 96-well assay plate at 40 μL per well (final concentration: 100 μg/mL).
The test compound solution was dispensed at 5 μL per well, and then the solutions in the respective wells were mixed using a plate mixer. 100 mM ATP (Sigma, Catalog No. A-7699) was diluted with an assay buffer to 1 mM and dispensed at 5 μL per well (final concentration: 100 μM). The solutions in the respective wells were mixed using a plate mixer, and then the assay plate was allowed to stand in an incubator set at 37° C. for two hours.
BIOMOL GREEN Reagent (BIOMOL, Catalog No. AK-111) was dispensed at 100 μL per well, and the reaction was terminated. The solutions in the respective wells were mixed using a plate mixer, and then 34% sodium citrate was dispensed at 10 μL per well. The solutions in the respective wells were mixed using a plate mixer, and then the assay plate was left to stand at room temperature for 30 minutes. The absorbance at 650 nm of each well was measured using SpectramaxPLUS (Molecular Devices).
The ratio of the absorbance of the test compound-added group to the absorbance of the test compound-free group (T/C value) was determined by the following calculation formula, based on the assumption that the absorbance of the well to which the test compound and rHsp90 were added was A, the absorbance of the well to which only rHsp90 was added was B, and the absorbance of the well to which neither the test compound nor rHsp90 was added was C. The calculation was carried out using Softmax Pro 4.6 (Molecular Devices). Furthermore, an inhibition rate (%) was calculated using the following calculation formula: T/C=(A−C)/(B−C)

[3] = test system: human breast cancer cell line SK-BR-3; test: Cell growth inhibition assay (MTT), SK-BR-3; assay type: cell-based; conditions: SK-BR-3, 72 hours
Procedure: as §1, §2, §3, §4

CYP3A4 = CYP3A4 (Homo sapiens, UniProt P08684); test: in vitro; conditions: microsomes, pH 7.4
Sequence of CYP3A4 (P08684 whole entry): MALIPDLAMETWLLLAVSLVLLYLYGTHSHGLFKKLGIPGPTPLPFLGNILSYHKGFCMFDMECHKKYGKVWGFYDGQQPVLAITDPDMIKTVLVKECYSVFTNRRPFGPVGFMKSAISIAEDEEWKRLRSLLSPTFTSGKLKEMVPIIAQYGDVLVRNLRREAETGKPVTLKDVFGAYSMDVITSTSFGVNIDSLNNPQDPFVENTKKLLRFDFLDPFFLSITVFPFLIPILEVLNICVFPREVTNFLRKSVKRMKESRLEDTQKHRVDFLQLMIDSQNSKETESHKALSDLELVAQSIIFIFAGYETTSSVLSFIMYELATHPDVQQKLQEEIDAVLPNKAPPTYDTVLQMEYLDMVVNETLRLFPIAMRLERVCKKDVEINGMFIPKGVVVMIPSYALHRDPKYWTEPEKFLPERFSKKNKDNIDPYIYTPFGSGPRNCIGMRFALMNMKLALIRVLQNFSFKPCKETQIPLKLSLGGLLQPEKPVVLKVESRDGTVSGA
Procedure: Appropriate amounts of such test compound, substrate, target to be measured, and positive control were weighed. They were dissolved in DMSO, and were then diluted with acetonitrile, as appropriate.
180 μl of a reaction solution prepared by mixing the following (1) to (5) had previously been warmed at 37° C. for 10 minutes:
(1) Potassium phosphate buffer (pH 7.4; final concentration: 50 mM)
(3) Midazolam (final concentration: 2.5 μM)
(5) Human hepatic microsome (final concentration: 0.05 mg-P/ml)
20 μl of the NADPH Regeneration System (solution A/solution B/purified water=5/1/4) was added to this reaction solution, and the reaction was initiated. The mixture was incubated for 10 minutes. Thereafter, 50 μl of the reaction solution was sampled, and it was then added to 200 μl of acetonitrile, followed by the termination of the reaction. Further, 50 μl of an acetonitrile solution containing an internal standard substance was added to the reaction solution.
In order to remove proteins from this sample, the reaction solution was transferred to a 96-Well Collection Plate (Waters) using Captiva (registered trademark) (GL Sciences). This sample solution was defined as a sample used for the assay of LC-MS/MS.
Samples of 1′-Hydroxymidazolam having known concentrations (final concentrations: 0 to 5 μM; total 5 points) were prepared, separately. A calibration curve used for assay was prepared, and the concentration of 1′-Hydroxymidazolam in the sample was assayed. This reaction was carried out in a duplicated manner.
The amount of 1′-Hydroxymidazolam generated in the negative control was defined as 100%, and the ratio of the amount of this compound generated by addition of each compound was then calculated. Thus, the inhibition value of CYP3A4 was obtained.

SMILES	GI50 [1] [nM]	inhibition at 2 µM [2] [%]	GI50 [3] [nM]	inhibition at 10 min, 10 μM (CYP3A4) [%]
CNC(=O)CC1=Cc2nn(Cc3ncc(F)c(OC)c3C)c3nc(N)nc(c23)SC1 [Compound 2, 2-{4-Amino-2-[(5-fluoro-4-methoxy-3-methylpyridin-2-yl)methyl]-2,7-dihydro-6-thia-1,2,3,5-tetraazabenzo-[cd]azulen-8-yl}-N-methylacetamide]	90	≥ 50	39	58
CNC(=O)CC1=Cc2nn(Cc3ncc(C)c(OC)c3Br)c3nc(N)nc(c23)SC1 [Compound 3, 2-{4-Amino-2-[(3-bromo-4-methoxy-5-methylpyridin-2-yl)methyl]-2,7-dihydro-6-thia-1,2,3,5-tetraazabenzo[cd]azulen-8-yl}-N-methylacetamide]	30	≥ 50	14	5
CNC(=O)CC1=Cc2nn(Cc3ncc(C)c(OC)c3Cl)c3nc(N)nc(c23)SC1 [Compound 1, 2-{4-Amino-2-[(3-chloro-4-methoxy-5-methylpyridin-2-yl)methyl]-2,7-dihydro-6-thia-1,2,3,5-tetraazabenzo[cd]azulen-8-yl}-N-methylacetamide]	26	≥ 50	13	15
COc1c(C)cnc(Cn2nc3c4c(nc(N)nc42)SCC(CC(=O)NCCF)=C3)c1Cl [Compound 5, 2-{4-Amino-2-[(3-chloro-4-methoxy-5-methylpyridin-2-yl)methyl]-2,7-dihydro-6-thia-1,2,3,5-tetraazabenzo[cd]azulen-8-yl}-N-(2-fluoroethyl)acetamide]	36	≥ 50	16	66
COc1ccnc(Cn2nc3c4c(nc(N)nc42)SCC(C(=O)NCC(F)F)=C3)c1Cl [Compound 6, 4-Amino-2-[(3-chloro-4-methoxypyridin-2-yl)methyl]-N-(2,2-difluoroethyl)-2,7-dihydro-6-thia-1,2,3,5-tetraazabenzo[cd]azulen-8-carboxamide]	110	≥ 50	45	-18
COc1c(C)cnc(Cn2nc3c4c(nc(N)nc42)SCC(CC(N)=O)=C3)c1Br [Compound 4, 2-{4-Amino-2-[(3-bromo-4-methoxy-5-methylpyridin-2-yl)methyl]-2,7-dihydro-6-thia-1,2,3,5-tetraazabenzo[cd]azulen-8-yl}acetamide mesilate]	22	≥ 50	11	43
